What was measured:
[1] = target: ERK5 (Homo sapiens, UniProt Q13164); test: ADP-Glo kinase assay; assay type: biochemical
Protocol: (§1) The full-length human ERK1 or ERK2 with His-tag was cloned into a pET28a vector. hERK1/2 were expressed in Escherichia coli BL21(DE3), and then were purified using sequential Ni-NTA and Superdex 200 column steps. The SEC purified sample was then concentrated to 10 mg/ml and stored at −80 °C with buffer containing 20 mM HEPES pH 7.5, 150 mM NaCl. ERK5 (residues 48–395) containing His and GST tags was cloned into the pFastBac vector, and the recombinant plasmid was extracted. The recombinant plasmid was transformed into the DH10bac strain, and monoclonal was selected for culture. The recombinant Bacmid was then extracted according to the instructions of the Baculovirus Shuttle Vector Bacmid Mini Preparation Kit (Beyotime) and validated by PCR. 1 × 10^6/well Sf9 cells were counted for transfection and then amplified to obtain P3 ERK5 recombinant baculovirus. It was added to 2 × 10^6/mL Sf9 cells and incubated at 27 °C for 72 h on a shaker to express ERK5. Cells were lysed and supernatant was collected on a Ni-NTA for purification, and a 250 mM imidazole eluate was collected. Next, digestion by TEV protease was performed overnight while dialysis was performed in approximately 1000 mL of imidazole-free buffer. The digested ERK5 protein was sequentially purified on the Ni-NTA and GST-tag Purification Resin, followed by size exclusion chromatography on a Superdex 75 column. ERK5 protein was collected and concentrated to 12 mg/ml and stored at −80 °C in buffer containing 50 mM HEPES pH 8.0, 200 mM NaCl, 10% (v/v) glycerol.
(§2) ERK1/2/5 kinase activity assay was conducted using ADP-Glo™ Kinase Assay. 2× ATP solution and 2× kinase & Metal solution were prepared using assay buffer were prepared using assay buffer containing 50 mM Hepes pH 7.5, 10 mM MgCl2; 0.01% Brij35, 1 mM EGTA, 2 mM DTT. Transfer 40 nL compounds to 384 assay plate. Add 2 μL of 2× kinase & Metal solution were mixed and incubated in a 384-assay plate for 10 min at 25 °C. 2 μL of 2×ATP solution was added and incubated at 25 °C for 60 min. And then, each well was supplemented with 4 µL of ADP-Glo^TM reagent and incubated at 25 °C for 40 min. Subsequently, 8 µL of Kinase Detection Reagent was added and incubated at 25 °C for 40 min. Finally, the luminescence signals were recorded. The IC50 values were calculated using GraphPad Prism 9.5 software.

[2] = target: ERK2 (Homo sapiens, UniProt P28482); test: ADP-Glo kinase assay; assay type: biochemical
Chain of ERK2 (P28482 whole entry): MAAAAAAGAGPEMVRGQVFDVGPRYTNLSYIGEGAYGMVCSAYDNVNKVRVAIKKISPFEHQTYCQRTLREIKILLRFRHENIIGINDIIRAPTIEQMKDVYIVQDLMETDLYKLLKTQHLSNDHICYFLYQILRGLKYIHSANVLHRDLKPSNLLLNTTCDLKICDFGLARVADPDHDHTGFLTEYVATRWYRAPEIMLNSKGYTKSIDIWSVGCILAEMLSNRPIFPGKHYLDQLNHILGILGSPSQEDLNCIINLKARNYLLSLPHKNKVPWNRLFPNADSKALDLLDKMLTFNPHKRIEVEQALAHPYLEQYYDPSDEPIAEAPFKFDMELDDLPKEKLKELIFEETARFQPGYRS
Protocol: as §1, §2

[3] = target: ERK1 (Homo sapiens, UniProt P27361); test: ADP-Glo kinase assay; assay type: biochemical
Chain of ERK1 (P27361 whole entry): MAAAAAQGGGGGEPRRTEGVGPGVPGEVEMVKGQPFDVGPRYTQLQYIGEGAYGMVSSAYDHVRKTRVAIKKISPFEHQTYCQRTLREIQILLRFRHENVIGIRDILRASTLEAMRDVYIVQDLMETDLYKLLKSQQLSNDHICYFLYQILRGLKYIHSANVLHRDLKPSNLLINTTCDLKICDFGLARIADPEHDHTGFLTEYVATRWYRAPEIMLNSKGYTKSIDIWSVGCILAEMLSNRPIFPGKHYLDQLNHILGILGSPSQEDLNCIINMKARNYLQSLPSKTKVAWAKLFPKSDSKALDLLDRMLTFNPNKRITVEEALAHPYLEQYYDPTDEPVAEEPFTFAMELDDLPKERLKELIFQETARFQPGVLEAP
Protocol: as §1, §2

[4] = tested on: MDA-MB-231 cells; test: MTT cell viability assay; assay type: cell-based; settings: 10 μM
Protocol: (§3) MDA-MB-468 and MDA-MB-436 cells were cultured in Leibovitz’s L-15 medium supplemented with 10% fetal bovine serum. […] All of the cells were cultured at 37 °C in a humidified atmosphere containing 5% CO2.
(§4) Cancer cells were seeded in a density in 96-well plates (2 × 10^3 cells per well). After incubation for 24 h, cancer cells were treated with compounds (0–20 μM) for 72 h.

[5] = tested on: MDA-MB-468 cells; test: MTT cell viability assay; assay type: cell-based; settings: 10 μM
Protocol: as §3, §4

Chain of ERK5 (Q13164 whole entry, the tested form may be a part): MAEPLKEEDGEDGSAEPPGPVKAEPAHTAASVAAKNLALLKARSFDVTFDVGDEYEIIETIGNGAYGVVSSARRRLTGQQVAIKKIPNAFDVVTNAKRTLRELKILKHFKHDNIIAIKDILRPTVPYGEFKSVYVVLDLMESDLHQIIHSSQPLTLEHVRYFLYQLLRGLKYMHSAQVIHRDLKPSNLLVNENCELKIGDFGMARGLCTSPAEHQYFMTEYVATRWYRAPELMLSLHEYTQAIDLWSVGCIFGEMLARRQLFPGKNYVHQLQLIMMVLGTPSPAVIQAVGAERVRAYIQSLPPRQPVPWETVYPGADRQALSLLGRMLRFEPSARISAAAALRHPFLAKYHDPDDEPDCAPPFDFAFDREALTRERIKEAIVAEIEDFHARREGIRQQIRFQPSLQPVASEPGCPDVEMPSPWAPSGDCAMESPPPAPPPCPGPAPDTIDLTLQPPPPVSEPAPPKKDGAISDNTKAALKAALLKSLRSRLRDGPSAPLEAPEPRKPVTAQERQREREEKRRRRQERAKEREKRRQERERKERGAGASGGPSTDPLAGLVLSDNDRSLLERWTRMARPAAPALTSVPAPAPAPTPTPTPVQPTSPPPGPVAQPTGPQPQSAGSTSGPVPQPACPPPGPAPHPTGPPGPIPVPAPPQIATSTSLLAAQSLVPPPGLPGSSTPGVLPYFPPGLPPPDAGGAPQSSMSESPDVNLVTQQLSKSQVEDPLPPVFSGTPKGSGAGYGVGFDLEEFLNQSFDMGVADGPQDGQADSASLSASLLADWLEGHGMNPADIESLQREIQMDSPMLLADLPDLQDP

SMILES	Enzyme inhibitory activity (500 nM, %) ERK5 [1]	Enzyme inhibitory activity (500 nM, %) ERK2 [2]	Enzyme inhibitory activity (500 nM, %) ERK1 [3]	Anti-proliferative activity (10 μM, %) MDA-MB-231 [4]	Anti-proliferative activity (10 μM, %) MDA-MB-468 [5]	inhibition at 0.5 µM ([1]; read-out: Enzyme inhibitory activity (500 nM, %) ERK5)	inhibition at 0.5 µM ([2]; read-out: Enzyme inhibitory activity (500 nM, %) ERK2)	inhibition at 0.5 µM ([3]; read-out: Enzyme inhibitory activity (500 nM, %) ERK1)
Cn1nccc1Nc1ncc(Cl)c(-c2csc(C(=O)N[C@H]3CC[C@H](O)CC3)c2)n1 [6f]	35.94 ± 1.21%	89.54 ± 2.31%	89.31 ± 0.87%	11.85 ± 2.31%	57.68 ± 1.09%	–	–	–
CC(C)Oc1ccc(NC(=O)c2cc(-c3nc(Nc4ccnn4C)ncc3Cl)cs2)cc1 [6ae]	61.02 ± 1.22%	95.32 ± 0.08%	93.45 ± 1.80%	15.96 ± 0.09%	4.62 ± 0.89%	–	–	–
COc1ccc(NC(=O)c2cc(-c3nc(Nc4c(C)nn(C)c4C)ncc3Cl)cs2)cc1 [9d, 4-(5-chloro-2-((1,3,5-trimethyl-1H-pyrazol-4-yl)amino)pyrimidin-4-yl)-N-(4-methoxyphenyl)thio-phene-2-carboxamide]	23.12 ± 3.21%	43.22 ± 0.23%	45.29 ± 1.30%	7.54 ± 1.23%	24.33 ± 0.84%	–	–	–
CN(C)Cc1cccc(Nc2ncc(Cl)c(-c3csc(C(=O)NN4CCN(C)CC4)c3)n2)c1 [18n]	79.74 ± 0.07%	91.03 ± 1.23%	90.27 ± 1.78%	54.82 ± 1.21%	86.37 ± 0.43%	–	–	–
Cn1nccc1Nc1ncc(Cl)c(-c2csc(C(=O)NC3CCSCC3)c2)n1 [6d]	34.57 ± 1.42%	91.52 ± 0.31%	93.12 ± 1.89%	37.21 ± 0.72%	23.35 ± 2.34%	–	–	–
Cc1cccc(NC(=O)c2cc(-c3nc(Nc4ccnn4C)ncc3Cl)cs2)c1 [6q]	65.90 ± 3.12%	82.11 ±0.61%	80.23 ± 0.68%	29.43 ± 3.25%	33.20± 0.44%	–	–	–
CN(C)Cc1cccc(Nc2ncc(Cl)c(-c3csc(C(=O)Nc4ccnn4C)c3)n2)c1 [18k]	86.64 ± 0.89%	43.61 ± 1.45%	45.23 ± 2.12%	39.77 ± 0.31%	-3.93 ± 1.21%	–	–	–
Cn1nccc1Nc1ncc(Cl)c(-c2csc(C(=O)Nc3ccc(C(F)(F)F)cc3)c2)n1 [6y]	23.21 ± 3.45%	51.08 ±2.31%	50.78 ± 0.89%	8.87 ± 1.11%	9.83 ± 0.93%	–	–	–
CSc1ccc(NC(=O)c2cc(-c3nc(Nc4ccnn4C)ncc3Cl)cs2)cc1 [6ac]	69.90 ± 2.56%	97.67 ± 0.90%	95.98 ± 1.02%	22.57 ± 1.11%	18.49 ± 0.23%	–	–	–
Cn1nccc1Nc1ncc(Cl)c(-c2csc(C(=O)Nc3cccc(Cl)c3)c2)n1 [6k]	36.99 ± 0.32%	57.85 ± 0.88%	59.39 ± 3.21%	39.12 ± 1.23%	23.41 ± 0.48%	–	–	–
CN(C)Cc1cccc(Nc2ncc(Cl)c(-c3csc(C(=O)Nc4cccc(N(C)C)c4)c3)n2)c1 [18d]	78.85 ± 2.67%	23.97 ± 0.90%	–	85.64 ± 1.02%	50.45 ± 2.12%	–	–	–
CC(C)N1CCN(C(=O)c2cc(-c3nc(Nc4ccnn4C)ncc3Cl)cs2)CC1 [6c]	19.12 ± 2.15%	14.38 ± 0.24%	21.57 ± 2.34%	5.71 ± 1.21%	3.51 ± 0.77%	–	–	–
COc1ccc(NC(=O)c2cc(-c3nc(Nc4ccccc4)ncc3Cl)cs2)cc1 [9e]	45.32 ± 0.09%	76.45 ± 0.01%	77.32 ± 2.34%	23.33 ± 0.56%	25.10 ± 1.53%	–	–	–
Cn1nccc1Nc1ncc(Cl)c(-c2csc(C(=O)Nc3ccccc3)c2)n1 [6i]	–	–	–	5.65 ± 0.22%	-12.07 ± 2.31%	–	–	–
Cn1nccc1Nc1ncc(Cl)c(-c2csc(C(=O)Nc3cccc(N)c3)c2)n1 [6p]	77.49 ± 0.89%	84.67 ± 0.65%	86.34 ± 0.79%	33.51 ± 0.32%	28.42 ± 1.21%	–	–	–
Cn1nccc1Nc1ncc(Cl)c(-c2csc(C(=O)NN3CCOCC3)c2)n1 [6e]	70.61 ± 0.98%	99.00 ± 0.56%	97.82 ± 0.43%	11.49 ± 1.48%	0.70 ± 0.45%	–	–	–
COc1cc(N2CCN(C)CC2)ccc1NC(=O)c1cc(-c2nc(Nc3ccnn3C)ncc2Cl)cs1 [H1]	–	–	–	–	–	59.5%	64.2%	62.5%
Cn1nccc1Nc1ncc(Cl)c(-c2csc(C(=O)Nc3cccc(F)c3)c2)n1 [6j]	–	–	–	25.73 ± 0.57%	10.11 ± 0.76%	–	–	–
Cn1nccc1Nc1ncc(Cl)c(-c2csc(C(=O)NCc3cnccn3)c2)n1 [6h]	–	–	–	23.65 ± 1.27%	7.43 ± 3.45%	–	–	–

From paper PMC11842588, “A first-in-class selective inhibitor of ERK1/2 and ERK5 overcomes drug resistance with a single-molecule strategy” (Signal Transduction and Targeted Therapy, 2025)
